# Where “and” joins values, the source holds several entries; their conditions need not be identical. Equal entries are not always repeated.
# Key:
# Type in all cases: cell-based
# [1] = system: Escherichia coli (10536 strain); test: 15 second contact kill test versus E. coli (actives in water, mean bacterial survival NMBS); conditions: for NMBS: no alcohol, 15 s
# Protocol: 15 Second Contact Kill Test Versus E. Coli and S. Aureus
# Antimicrobial efficacy is tested against a representative pathogenic bacterial organism, Gram negative Escherichia coli. Concentrations of actives are expressed in terms of the percentage weight/volume (% w/v) throughout Example 1.
# An overnight culture of Escherichia coli (10536 strain) was prepared in 50 ml total volume of TSB broth, grown for ca. 18 hrs at 37° C. and shaken at 150 rpm. 1 ml of this overnight E. coli culture was transferred to 50 ml of fresh TSB broth and incubated at 37° C. at 150 rpm for ca. 4 hours. This culture was separated into equal volumes and centrifuged at 4000 rpm for 15 minutes, washed with sterile saline (0.85% NaCl), centrifuged once more and re-suspended in saline to give a final concentration of 0.8 OD620 equivalent to about 10^8 cells per milliliter for this particular organism. Here, OD620 indicates the absorbance of a sample in a cuvette of 1.0 cm path length at a wavelength of 620 nm. This bacterial stock was used for assaying against antimicrobial actives (in triplicate). S. Aureus Bacterial Stock
# The following assay describes the testing of 8 materials using 6 dilutions across half of a 96-well micro titre plate (MTP). Using this approach it is possible to assay 16 actives (without replicates) with one full dilution plate, replicating this set up in two halves of the plate columns, 1-6 and 7-12. 1M solutions of the test actives were prepared in dimethylsulphoxide (DMSO). […] Aliquots (270 μl) of the materials at 1.11 times the final concentration were dispensed into the wells of the MTP along one column (A1-H1). This MTP was labelled as the “Screening plate”. In another MTP, labelled as the “Dilution plate”, […] of D/E neutralising solution from DIFCO Composition was added to column 1. The composition of the neutralising solution was as follows: pancreatic digest of casein, 5.0 g/L; Yeast Extract, 2.5 g/L; Dextrose, 10 g/L, sodium thioglycollate, 1.0 g/L, sodium thiosulphate, 6.0 g/L; sodium bisulphite, 2.5 g/L; Polysorbate 80, 5.0 g/L; lecithin 7.0 g/L; bromocresol purple, 0.02 g/L with a pH in the range 7.6±0.2. 270 μl of tryptone diluent solution was added to all the remaining wells of the Dilution MTP (columns 2-6). Bacterial stock (30 μl) was then added to the prepared 270 μl of the solution of actives in the Screening Plate and mixed, using a multichannel pipette with 8 tips to aspirate and dispense the same volume of bacterial stock in parallel to 8 wells in rows A-H. After a contact time of 15 seconds, the mixtures were quenched by transferring 30 μl volumes of the mixtures into the 270 μl D/E neutralising solution in the prepared dilution plate, using aspiration to mix. After exactly 5 minutes in the D/E neutralising solution, 30 μl volumes were transferred from column 1 to column 2 of the Dilution MTP and mixed, before transferring further 30 μl volumes from column 2 into column 3. This process was repeated serially diluting the bacteria across the plate to column 6. 30 μl volumes from each well in the Dilution MTP were transferred onto pre-labelled segment of Tryptone Soya Agar (TSA) plates starting from the lowest bacterial concentration (highest dilution, column 6) to the highest bacterial concentration (column 1). The TSA plates were allowed to stand for ca. 2 hours so that the 30 μl inocula spots could dry and the plates were then inverted and incubated overnight at 37° C. before enumerating the bacterial colonies at the labelled dilutions to determine the effects of the actives on bacterial growth. Calculation of Results Mean bacterial survival numbers NMBS (expressed in Log CFU/ml) are obtained by first determining the segment of the TSA plate where the number of bacterial colonies is countable.
# [2] = system: Escherichia coli (E. coli—ATCC #10536); test: Synergy test: high resolution MBC microtiter plate assay, phosphate buffer containing 35% dipropylene glycol, 15 seconds contact; conditions: E. coli 10536; for SI (Synergy Index): at Qa and Qb, less than one = synergy; for MBC of the component acting alone (QA / QB; Qa or Qb where the other component is 0): complete kill in 15 seconds
# Source text: The concentrations and ratios may also vary under different test conditions or with different test methods.
# One measure of synergy is the industrially accepted method described by Kull, F. C.; Eisman, P. C.; Sylwestrowicz, H. D, and Mayer, R. L., in Applied Microbiology 9:538-541 (1961), using the ratio determined by the formula: […]=Synergy Index (“SI”) wherein; QA=concentration of compound A (first component) in percent, acting alone, which produced an end point (MBC of Compound A). Qa=concentration of compound A in percent, in the mixture, which produced an end point. QB=concentration of compound B (second component) in percent, acting alone, which, produced an end point (MBC of Compound B). Qb=concentration of compound B in percent, in the mixture, which produced an end point.
# When the sum of Qa/QA and Qb/QB is greater than one, antagonism is indicated. […] The lower the SI, the greater is the synergy shown by that particular mixture. The minimum biocidal concentration (MBC) of a microbicide is the lowest concentration tested under a specific set of conditions that provides complete kill of the tested microorganisms.
# Synergy tests were conducted using standard microliter plate assays with phosphate buffer containing 35% dipropylene glycol (DPG). In this method, a wide range of combinations of chemicals was tested by conducting high resolution MBC assays of Component (A) in the presence of various concentrations of Component (B). High resolution MBCs were determined by adding varying amounts of microbicide to one column of a microliter plate and doing subsequent […] dilutions using an automated liquid handling, system to obtain a series of closely spaced endpoints. The MBC plate was inoculated one column at a time with the test microorganism. An aliquot of the inoculated well was transferred at 15 seconds to a plate containing a neutralizing agent (D/E Neutralizing Broth), mixed and held for 5 minutes before being transferred to a growth plate containing trypticase soy broth (TSB). The TSB plate was incubated at 37° C. and read for the presence/absence of growth at 24 hours. The lowest level tested that provided complete kill (as evidenced by no growth in the microtitre plate) of the test organisms in 15 seconds is the minimum biocidal concentration (MBC).
# The synergy of the combinations of the present invention was determined against a bacterium, Escherichia coli (E. coli—ATCC #10536), at a concentration of approximately 1×10^8 it bacteria per mL. This microorganism is representative of natural contaminants in many consumer and industrial applications.
# [3] = system: Escherichia coli (E. coli—ATCC #10536); test: Automated assessment of efficacy in surfactant base (2.85% sodium cocoyl glycinate and 1.85% sodium lauroamphoacetate, pH 10.0), 15 seconds exposure; conditions: for No. of replicates showing growth (out of 4) / Δ OD 450 nm = OD450 (time = 16 hours) − OD450 (time zero), Mean / Δ OD 590 nm OD590 (time = 16 hours) − OD590 (time zero), Mean: alone, model surfactant solution; for MBC (minimum biocidal concentration): in 2.85% sodium cocoyl glycinate + 1.85% sodium lauroamphoacetate solution at pH 10, E. coli
# Protocol: Test Methodology for Automated Assessment of Efficacy in Surfactant Base Microbiocidal Activity of Actives as Per the Invention in a Model Surfactant Medium Test Methodology for Automated Assessment of Efficacy in Surfactant Base In these examples, the efficacy of combinations of actives were tested in a surfactant cleansing formulation comprising 2.85% sodium cocoyl glycinate and 1.85% sodium lauroamphoacetate. This corresponds to a 50% in use dilution with water of a neat formulation containing 5.7% cocoyl glycinate and […] % sodium, lauroamphoacetate during hand washing. Solutions were prepared such that the concentrations of the surfactant components and test actives were 1.1× the final desired concentration in order to allow for dilution with the bacterial inoculum in the test. The solutions were manually adjusted to pH 10.0 by dropwise addition of sodium hydroxide solution, as measured with a pH meter at ambient temperature. The efficacy of the combinations of the present invention was determined against Escherichia coli (E. coli—ATCC #10536), at a concentration of approximately 1×10^8 bacteria per mL. Tests were conducted using standard microtiter plate assays using an automated liquid handling system. 270 μl of the surfactant test solution was pipetted into each well of the microtitre plate and 30 μl of the bacterial suspension was then added. Alter exactly 15 seconds of bacterial exposure, a 30 μl volume of bacterial cells was withdrawn and transferred to 270 μl of D/E quench solution. After 5 minutes in the D/E quench, the optical density (OD) was measured for each plate in turn at two specific wavelengths (450 nm and 590 nm). These provide a dual check of antimicrobial activity, as the OD450 reading is specific for the yellow colour of D/E quench when bacterial growth is observed, whereas OD590 is specific for the initial purple colour of the D/E quench which is retained if no bacterial growth is observed. After the time zero OD measurements, plates were then incubated at 37° C. overnight (16 hours) before repeating the OD measurements. Delta OD values were calculated by subtracting […]. Bacterial growth is observed as an increase in OD450 and a decrease in ΔOD590. To identify antibacterially efficacious systems (those preventing appreciable bacterial growth after incubation), the following threshold changes in OD readings have been adopted: if (1). OD450 increases by less than 0.2 absorbance unit on incubation and (2). OD590 decreases by less than 0.35 unit on incubation. Conversely, where OD450 increases by more than 0.2 AU and OD590 decreases by more than 0.35 unit after incubation, corresponding to a colour shift from purple to yellow, the test system allows bacterial growth and is not deemed efficacious. Four replicate measurements in the same plate have been made for each test system. The number of replicate wells showing either bacterial growth or no growth is also readily assessed by eye by following the colour change. Dose responses for individual components and binary mixtures of actives at a fixed concentration ratio were generated by sequential dilution of liquors with further surfactant solution to obtain a series of endpoints. […] In some selected cases, the combinations were also tested at the weight ratio 1:1.
Compound,"NMBS ([1]; 0.0125% 4-benzylphenol, E. coli) [log CFU/ml]","NMBS ([1]; 0.05% 4-benzylphenol, E. coli) [log CFU/ml]","MBC (minimum biocidal concentration of antimicrobial components) ([1]; Table 27, component alone) [% w/v]","Phenolic compound MBC ([1]; Table 28, E. coli, component alone)","NMBS ([1]; […] 4-benzylphenol, E. coli) [log CFU/ml]",SI (Synergy Index) [2],MBC of the component acting alone (QA / QB; Qa or Qb where the other component is 0) [2],No. of replicates showing growth (out of 4) ([3]; 0.125% w/v),"Δ OD 450 nm = OD450 (time = 16 hours) − OD450 (time zero), Mean ([3]; 0.125% w/v)","Δ OD 590 nm OD590 (time = 16 hours) − OD590 (time zero), Mean ([3]; 0.125% w/v)",No. of replicates showing growth (out of 4) ([3]; 0.2% w/v),"Δ OD 450 nm = OD450 (time = 16 hours) − OD450 (time zero), Mean ([3]; 0.2% w/v)","Δ OD 590 nm OD590 (time = 16 hours) − OD590 (time zero), Mean ([3]; 0.2% w/v)",No. of replicates showing growth (out of 4) ([3]; […] w/v),"Δ OD 450 nm = OD450 (time = 16 hours) − OD450 (time zero), Mean ([3]; […] w/v)","Δ OD 590 nm OD590 (time = 16 hours) − OD590 (time zero), Mean ([3]; […] w/v)",MBC (minimum biocidal concentration) [3] [% w/v],No. of replicates showing growth (out of 4) ([3]; 0.1% w/v),"Δ OD 450 nm = OD450 (time = 16 hours) − OD450 (time zero), Mean ([3]; 0.1% w/v)","Δ OD 590 nm OD590 (time = 16 hours) − OD590 (time zero), Mean ([3]; 0.1% w/v)"
"Oc1ccc(Cc2ccccc2)cc1 [4-benzylphenol, 4-benzyl phenol]",7.75,0.00,0.05,0.5 % (w/v),4.20,–,–,–,–,–,–,–,–,–,–,–,–,–,–,–
"CC(C)(C)c1ccc(O)c(O)c1 [4-tert-butylbenzene-1,2-diol]",–,–,–,–,–,1.00,1.00 weight % and 1.0 weight %,4,−1.63,0.22,4,−1.66,0.17,4,−1.63,0.20,>0.2,–,–,–
"Oc1cccc2c1CCCC2 [5,6,7,8-tetrahydronaphthalen-1-ol]",–,–,–,–,–,1.00,0.6 weight %,–,–,–,4,−0.47,0.65,4,−0.52,0.58,>0.2,4,−0.57,0.56
"Oc1ccc2c(c1)CCCC2 [5,6,7,8-tetrahydronaphthalen-2-ol]",–,–,–,–,–,1.00,0.8 weight % and 0.6 weight %,–,–,–,4,−1.55,0.36,4,−1.60,0.31,–,4,−1.56,0.32
C=C(C)[C@@H]1CC=C(CO)CC1 [(4S)-(4-(prop-1-en-2-yl)cyclohex-1-enyl)methanol],–,–,–,–,–,1.00,0.5 weight % and 0.3 weight % and 0.6 weight %,–,–,–,–,–,–,–,–,–,0.4,–,–,–

# Source: patent publication US9320271B2, “Microbial composition” (Rohm and Haas Company, priority 2011, dated 2016)
